Active and inactive are the calls of the source. No cut-off for these calls is given here.
Assays:
[1] = system: SMMC-7721; assay: Induction of autophagy in human SMMC7721 cells up to 10 uM after 48 hrs in presence of antioxidant NAC by MDC staining-based flow cytometry; type: functional, cell-based
[2] = system: HepG2; assay: Antiproliferative activity against human HepG2 cells after 48 hrs by MTT assay; type: functional, cell-based; details: HepG2, 48 h
[3] = system: MDA-MB-231; assay: Antiproliferative activity against human MDA-MB-231 cells after 48 hrs by MTT assay; type: functional, cell-based; details: MDA-MB-231, 48 h
[4] = system: HepG2; assay: Induction of ROS generation in human HepG2 cells after 24 hrs by H2DCFDA staining-based HCS analysis; type: functional, cell-based
[5] = system: HepG2; assay: Induction of autophagy in human HepG2 cells assessed as downregulation of p62 expression level up to 10 uM after 24 to 48 hrs by Western blot analysis; type: functional, cell-based
[6] = system: SMMC-7721; assay: Induction of autophagy in human SMMC7721 cells assessed as increase in LC3-2 levels after 24 to 48 hrs by Western blot analysis; type: functional, cell-based
[7] = system: HepG2; assay: Inhibition of cell migration in human HepG2 cells at 2.5 to 7.5 uM incubated for 24 to 48 hrs by cell wound scratch assay; type: functional, cell-based
[8] = system: SMMC-7721; assay: Induction of ROS generation in human SMMC7721 cells at 10 uM after 24 hrs in presence of antioxidant NAC by H2DCFDA staining-based flow cytometry; type: functional, cell-based
[9] = system: SMMC-7721; assay: Induction of autophagy in human SMMC7721 cells assessed as decrease in p62 levels in presence of antioxidant NAC by Western blot analysis; type: functional, cell-based
[10] = system: SMMC-7721; assay: Inhibition of cell migration in human SMMC7721 cells at 2.5 to 7.5 uM incubated for 24 to 48 hrs by cell wound scratch assay; type: functional, cell-based
[11] = system: Mus musculus; assay: Toxicity in Swiss mouse implanted with mouse H22 cells assessed as effect on quality of life at 0.75 mg/kg/day, iv administered via tail vein for 7 days; type: organism-based; details: in vivo, 168 h
[12] = system: SMMC-7721; assay: Induction of autophagy in human SMMC7721 cells assessed as increase in Beclin 1 levels at 2.5 to 7.5 um after 24 to 48 hrs by Western blot analysis; type: functional, cell-based
[13] = system: Mus musculus; assay: Toxicity in Swiss mouse xenografted with mouse H22 cells assessed as effect on liver weight at 0.75 mg/kg/day, iv administered via tail vein for 7 days; type: organism-based; details: in vivo, 168 h
[14] = system: H22; assay: Antitumor activity against mouse H22 cells implanted in Swiss mouse assessed as inhibition of lung metastasis at 0.75 mg/kg/day, iv administered via tail vein for 7 days relative to control; type: functional; details: 168 h
[15] = system: HepG2; assay: Induction of autophagy in human HepG2 cells assessed as increase in LC3-2 levels after 24 to 48 hrs by Western blot analysis; type: functional, cell-based
[16] = system: HepG2; assay: Induction of autophagy in human HepG2 cells up to 10 uM after 48 hrs by MDC staining-based flow cytometry; type: functional, cell-based
[17] = system: HepG2; assay: Induction of autophagy in human HepG2 cells assessed as increase in LC3-2 levels in presence of antioxidant NAC by Western blot analysis; type: functional, cell-based
[18] = system: Mus musculus; assay: Toxicity in Swiss mouse xenografted with mouse H22 cells assessed as effect on kidney weight at 0.75 mg/kg/day, iv administered via tail vein for 7 days; type: organism-based; details: in vivo, 168 h
[19] = system: HT-29; assay: Antiproliferative activity against human HT-29 cells after 48 hrs by MTT assay; type: functional, cell-based; details: HT-29, 48 h
[20] = system: SMMC-7721; assay: Induction of ROS generation in human SMMC7721 cells after 24 hrs by H2DCFDA staining-based HCS analysis; type: functional, cell-based
[21] = system: HepG2; assay: Induction of autophagy in human HepG2 cells assessed as decrease in p62 levels in presence of antioxidant NAC by Western blot analysis; type: functional, cell-based
[22] = system: SMMC-7721; assay: Antiproliferative activity against human SMMC7721 cells after 48 hrs in presence of antioxidant NAC by MTT assay; type: functional, cell-based
[23] = system: HepG2; assay: Antimigratory activity in human HepG2 cells incubated for 24 to 48 hrs in presence of autophagy inhibitor 3-MA by cell wound scratch assay; type: functional, cell-based
[24] = system: HepG2; assay: Induction of autophagy in human HepG2 cells assessed as increase in Beclin 1 levels at 2.5 to 7.5 um after 24 to 48 hrs by Western blot analysis; type: functional, cell-based
[25] = system: Mus musculus; assay: Toxicity in Swiss mouse xenografted with mouse H22 cells assessed as effect on lung weight at 0.75 mg/kg/day, iv administered via tail vein for 7 days; type: organism-based; details: in vivo, 168 h
[26] = system: SMMC-7721; assay: Downregulation of MMP9 protein expression in human SMMC7721 cells after 24 to 48 hrs by Western blot analysis; type: functional, cell-based
[27] = system: HepG2; assay: Induction of ROS generation in human HepG2 cells at 2.5 to 10 uM after 24 hrs by H2DCFDA staining-based flow cytometry; type: functional, cell-based
[28] = system: HepG2; assay: Induction of autophagy in human HepG2 cells assessed as upregulation of ATG7 expression level up to 10 uM after 24 to 48 hrs by Western blot analysis; type: functional, cell-based
[29] = system: SMMC-7721; assay: Induction of autophagy in human SMMC7721 cells assessed as upregulation of ATG7 expression level up to 10 uM after 24 to 48 hrs by Western blot analysis; type: functional, cell-based
[30] = system: HepG2; assay: Induction of autophagy in human HepG2 cells assessed as upregulation of ATG5 expression level up to 10 uM after 24 to 48 hrs by Western blot analysis; type: functional, cell-based
[31] = system: HepG2; assay: Induction of ROS generation in human HepG2 cells at 10 uM after 24 hrs in presence of antioxidant NAC by H2DCFDA staining-based flow cytometry; type: functional, cell-based
[32] = system: Mus musculus; assay: Toxicity in Swiss mouse implanted with mouse H22 cells assessed as effect on body weight at 0.75 mg/kg/day, iv administered via tail vein for 7 days; type: organism-based; details: in vivo, 168 h
[33] = system: HepG2; assay: Antiproliferative activity against human HepG2 cells after 48 hrs in presence of antioxidant NAC by MTT assay; type: functional, cell-based
[34] = system: H22; assay: Antiproliferative activity against mouse H22 cells after 48 hrs by MTT assay; type: functional, cell-based; details: H22, 48 h
[35] = system: CT26; assay: Antimetastatic activity against mouse CT26 cells implanted in BALB/c mouse assessed as reduction in lung metastatic nodules at 0.75 mg/kg, iv administered via tail vein for 9 days; type: functional, organism-based
[36] = system: SMMC-7721; assay: Antiproliferative activity against human SMMC7721 cells after 48 hrs by MTT assay; type: functional, cell-based; details: SMMC-7721, 48 h
[37] = system: HCT-116; assay: Antiproliferative activity against human HCT116 cells after 48 hrs by MTT assay; type: functional, cell-based; details: HCT-116, 48 h
[38] = system: MCF7; assay: Antiproliferative activity against human MCF7 cells after 48 hrs by MTT assay; type: functional, cell-based; details: MCF7, 48 h
[39] = system: K562; assay: Antiproliferative activity against human K562 cells after 48 hrs by MTT assay; type: functional, cell-based; details: K562, 48 h
[40] = system: HepG2; assay: Downregulation of MMP9 protein expression in human HepG2 cells after 24 to 48 hrs by Western blot analysis; type: functional, cell-based
[41] = system: CT26; assay: Antiproliferative activity against mouse CT26 cells after 48 hrs by MTT assay; type: functional, cell-based; details: CT26, 48 h
[42] = system: Mus musculus; assay: Toxicity in Swiss mouse implanted with mouse H22 cells assessed as effect on heart weight at 0.75 mg/kg/day, iv administered via tail vein for 7 days; type: organism-based; details: in vivo, 168 h
[43] = Stability of the compound after 48 hrs by 1H NMR spectroscopic method; type: physicochemical
[44] = system: SMMC-7721; assay: Induction of autophagy in human SMMC7721 cells up to 10 uM after 48 hrs by MDC staining-based flow cytometry; type: functional, cell-based
[45] = system: H22; assay: Antitumor activity against mouse H22 cells implanted in Swiss mouse assessed as tumor growth inhibition at 0.75 mg/kg/day, iv administered via tail vein for 7 days relative to control; type: functional; details: 168 h, read-out: TGI
[46] = system: SMMC-7721; assay: Downregulation of beta-catenin protein expression in human SMMC7721 cells after 24 to 48 hrs by Western blot analysis; type: functional, cell-based
[47] = system: HepG2; assay: Induction of autophagy in human HepG2 cells up to 10 uM after 48 hrs in presence of antioxidant NAC by MDC staining-based flow cytometry; type: functional, cell-based
[48] = system: Mus musculus; assay: Toxicity in Swiss mouse xenografted with mouse H22 cells assessed as effect on spleen weight at 0.75 mg/kg/day, iv administered via tail vein for 7 days; type: organism-based; details: in vivo, 168 h
[49] = system: HepG2; assay: Downregulation of beta-catenin protein expression in human HepG2 cells after 24 to 48 hrs by Western blot analysis; type: functional, cell-based
[50] = system: SMMC-7721; assay: Induction of autophagy in human SMMC7721 cells assessed as upregulation of ATG5 expression level up to 10 uM after 24 to 48 hrs by Western blot analysis; type: functional, cell-based
[51] = system: SMMC-7721; assay: Induction of autophagy in human SMMC7721 cells assessed as increase in LC3-2 levels in presence of antioxidant NAC by Western blot analysis; type: functional, cell-based
[52] = Stability of the compound after 24 hrs by 1H NMR spectroscopic method; type: physicochemical
[53] = system: SMMC-7721; assay: Induction of autophagy in human SMMC7721 cells assessed as downregulation of p62 expression level up to 10 uM after 24 to 48 hrs by Western blot analysis; type: functional, cell-based
[54] = system: SMMC-7721; assay: Induction of ROS generation in human SMMC7721 cells at 2.5 to 10 uM after 24 hrs by H2DCFDA staining-based flow cytometry; type: functional, cell-based

Cl.Cl.Cl.O=C1c2cccc3cccc(c23)C(=O)N1CCCNCCCNCCCNC1CC1
Activity [1]: inactive | IC50 [2]: 6.34 µM | IC50 [3]: 5.14 µM | Activity [4]: Dose-dependent effect | Activity [5]: Active | Activity [6]: Dose-dependent effect | inhibition [7]: Active | Activity [8]: inactive | Activity [9]: inactive | inhibition [10]: Active | Activity [11]: Non-Toxic | Activity [12]: Active | Activity [13]: Non-Toxic | inhibition in vivo at 0.75 mg/kg/day [14]: 54.4% | Activity [15]: Dose-dependent effect | Activity [16]: Active | Activity [17]: inactive | Activity [18]: Non-Toxic | IC50 [19]: 8.18 µM | Activity [20]: Dose-dependent effect | Activity [21]: inactive | Activity [22]: inactive | Activity [23]: Active | Activity [24]: Active | Activity [25]: Non-Toxic | Activity [26]: Dose-dependent effect | Activity [27]: Active | Activity [28]: Active | Activity [29]: Active | Activity [30]: Active | Activity [31]: inactive | Activity [32]: Non-Toxic | Activity [33]: inactive | IC50 [34]: 7.49 µM | inhibition [35]: Active | IC50 [36]: 5.13 µM | IC50 [37]: 5.28 µM | IC50 [38]: 7.47 µM | IC50 [39]: 4.67 µM | Activity [40]: Dose-dependent effect | IC50 [41]: 9.04 µM | Activity [42]: Non-Toxic | Stability [43]: Stable | Activity [44]: Active | inhibition in vivo at 0.75 mg/kg/day [45]: 68.3% | Activity [46]: Dose-dependent effect | Activity [47]: inactive | Activity [48]: Non-Toxic | Activity [49]: Dose-dependent effect | Activity [50]: Active | Activity [51]: inactive | Stability [52]: Stable | Activity [53]: Active | Activity [54]: Active

O=C1c2cccc3cccc(c23)C(=O)N1CCCCNCCCCNCCCCNC1CC1
IC50 [2]: 9.68 µM | IC50 [36]: 12 µM | IC50 [37]: 15.1 µM | IC50 [39]: 8.55 µM

O=C1c2cccc3cccc(c23)C(=O)N1CCCNCCCCNCCCNC1CC1
IC50 [2]: 6.59 µM | IC50 [36]: 6.38 µM | IC50 [37]: 7.21 µM | IC50 [39]: 8.09 µM

O=C1c2cccc3cccc(c23)C(=O)N1CCCCNCCCCNCCCCNC1CCCCC1
IC50 [2]: 37 µM | IC50 [36]: 14.3 µM | IC50 [37]: 14.2 µM | IC50 [39]: 30.7 µM

CCCNCCCCNCCCCNCCCCN1C(=O)c2cccc3cccc(c23)C1=O
IC50 [2]: 75.3 µM | IC50 [36]: 18.8 µM | IC50 [37]: 20.4 µM | IC50 [39]: 32.4 µM

— ChEMBL document CHEMBL4138170, “Synthesis and biological evaluation of novel alkylated polyamine analogues as potential anticancer agents” (Eur J Med Chem, 2018)
